From publication PMC6276031 (International Journal of Neuropsychopharmacology, 2018)

How the values were obtained:
[1] = target: T1, dopamine D2 receptor (D2R, D2L long isoform) (Homo sapiens, UniProt P14416); test: GIRK1/[…] current activation in Xenopus oocytes; format: cell-based
[2] = target: dopamine D3 receptor (D3R) (Homo sapiens, UniProt P35462); test: GIRK1/[…] current activation in Xenopus oocytes expressing D3R; format: cell-based
[3] = target: T1, dopamine D2 receptor (D2R, D2L long isoform); test: cell-based; settings: read-out: % of the mean response to 1 μM dopamine

T1 sequence (P14416 whole entry, canonical isoform): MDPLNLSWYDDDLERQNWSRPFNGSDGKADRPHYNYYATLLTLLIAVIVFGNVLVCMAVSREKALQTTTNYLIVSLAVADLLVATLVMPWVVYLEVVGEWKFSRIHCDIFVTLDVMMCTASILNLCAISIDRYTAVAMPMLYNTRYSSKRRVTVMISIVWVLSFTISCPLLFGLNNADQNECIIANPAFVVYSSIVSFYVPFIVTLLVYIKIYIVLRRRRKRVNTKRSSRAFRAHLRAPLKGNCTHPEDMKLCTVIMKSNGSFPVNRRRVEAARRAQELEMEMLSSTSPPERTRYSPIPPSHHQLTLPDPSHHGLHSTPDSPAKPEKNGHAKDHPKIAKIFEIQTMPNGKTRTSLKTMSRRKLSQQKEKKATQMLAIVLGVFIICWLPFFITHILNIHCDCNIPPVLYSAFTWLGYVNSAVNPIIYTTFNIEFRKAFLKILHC
Chain of dopamine D3 receptor (D3R) (P35462 whole entry, canonical isoform): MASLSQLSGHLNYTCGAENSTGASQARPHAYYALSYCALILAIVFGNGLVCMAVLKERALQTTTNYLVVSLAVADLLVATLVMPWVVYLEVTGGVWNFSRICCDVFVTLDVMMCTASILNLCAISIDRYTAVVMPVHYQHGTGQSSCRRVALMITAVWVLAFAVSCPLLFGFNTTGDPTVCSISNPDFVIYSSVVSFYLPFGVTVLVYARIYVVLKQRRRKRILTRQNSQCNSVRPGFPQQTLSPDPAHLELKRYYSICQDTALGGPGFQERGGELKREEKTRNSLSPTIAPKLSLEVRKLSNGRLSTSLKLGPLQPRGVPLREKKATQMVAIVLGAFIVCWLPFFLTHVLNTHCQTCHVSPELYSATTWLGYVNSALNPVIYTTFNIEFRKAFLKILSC

For `Clc1cccc(C2CCN(CCCOc3ccc4scnc4c3)CC2)c1Cl` [UNC9994], the EC50 [1] was 185 nM and the EC50 [2] was 62.1 nM.
Work on `CCCN1CCC[C@@H](c2cccc(O)c2)C1` [(-)-3-PPP] yielded an Emax [3] of 27.7 ± 7.5%.
